Measured values as given in US6710064B2, “Hydantoin compounds useful as anti-inflammatory agents” (Bristol-Myers Squibb Co., priority 2000, dated 2004).

melting point: 135 °C
Compound: O=C1[C@H]2C[C@@H](OCc3ccc(Br)cc3)CN2C(=O)N1c1cc(Cl)cc(Cl)c1 [Example 6, (7aR,6R)-2-(3,5-dichloro-phenyl)-6-(4-bromobenzyloxy)-tetrahydro-pyrrolo[1,2-c]imidazole-1,3-dione]
